Reference: US11566039B2, “Lincosamide antibiotics and uses thereof” (President and Fellows of Harvard College, priority 2017, dated 2023)
≈ marks a conversion by molar mass, not a printed value. Read-outs that look alike come from different tables or passages of the source.

Columns and labels:
Type in all cases: cell-based
S. pyogenes ATCC 19615 = assay: MIC against S. pyogenes ATCC 19615
E. coli ATCC 25922 = assay: MIC against E. coli ATCC 25922
S. aureus ATCC 29213 = assay: MIC against S. aureus ATCC 29213
S. pneumoniae ATCC 49619 = assay: MIC against S. pneumoniae ATCC 49619
E. faecalis ATCC 29212 = assay: MIC against E. faecalis ATCC 29212
[1] = tested on: E. coli MP-74 LptD mutant; assay: MIC against E. coli MP-74 LptD mutant
H. influenzae ATCC 49247 = assay: MIC against H. influenzae ATCC 49247
E. coli MP-9 ΔTolC = assay: MIC against E. coli MP-9 ΔTolC
K. pneumoniae ATCC 10031 = assay: MIC against K. pneumoniae ATCC 10031
[2] = tested on: S. aureus MP-549 msr(a) USA 300; assay: MIC against S. aureus MP-549 msr(a) USA 300
[3] = Streptococcus pyogenes, ATCC19615, S. pyogenes ATCC 19615, read-out: MIC
[4] = Escherichia coli, ATCC25922, read-out: MIC
[5] = Staphylococcus aureus, ATCC29213, S. aureus ATCC 29213, read-out: MIC
[6] = Streptococcus pneumoniae, ATCC49619, S. pneumoniae ATCC 49619, read-out: MIC
[7] = Enterococcus faecalis, ATCC29212, E. faecalis ATCC 29212, read-out: MIC
[8] = Haemophilus influenzae, ATCC49247, H. influenzae ATCC 49247, read-out: MIC
[9] = Klebsiella pneumoniae, ATCC10031, read-out: MIC
[10] = S. aureus MP-549 msr(a) USA 300
[11] = Staphylococcus aureus, USA300, S. aureus MP-549 msr(a) USA 300

Structure (SMILES) | MIC (S. pyogenes ATCC 19615; [3]) | MIC (E. coli ATCC 25922; [4]) | MIC (S. aureus ATCC 29213; [5]) | MIC (S. pneumoniae ATCC 49619; [6]) | MIC (E. faecalis ATCC 29212; [7]) | MIC (S. pyogenes ATCC 19615; S. pyogenes ATCC 19615) | MIC [1] | MIC (S. aureus ATCC 29213; S. aureus ATCC 29213) | MIC (H. influenzae ATCC 49247; [8]) | MIC (S. pneumoniae ATCC 49619; S. pneumoniae ATCC 49619) | MIC (E. coli MP-9 ΔTolC; Escherichia coli) | MIC (K. pneumoniae ATCC 10031; [9]) | MIC [2, 10] | MIC ([1]; Escherichia coli) | MIC [2, 11] | MIC (E. coli ATCC 25922) | MIC (H. influenzae ATCC 49247; H. influenzae ATCC 49247) | MIC (E. faecalis ATCC 29212; E. faecalis ATCC 29212) | MIC (E. coli MP-9 ΔTolC) | MIC (K. pneumoniae ATCC 10031)
CCC[C@@H]1C[C@@H](C(=O)N[C@H](CN(C)c2ccc(-c3cccnc3)cc2)[C@H]2OC(SC)[C@H](O)C(O)C2O)N(C)C1 (some centres unmarked) [FSA-215009] | 32 µg/mL (≈ 57.3 µM) | > 64 µg/mL | 64 µg/mL (≈ 115 µM) | 64 µg/mL (≈ 115 µM) | > 64 µg/mL | – | – | – | – | – | – | – | – | – | – | – | – | – | – | –
CCC[C@@H]1C[C@@H](C(=O)N[C@@H]([C@H]2OC(SC)[C@H](O)C(O)C2O)C(C)(C)C(C)N=[N+]=[N-])N(C)C1 (single isomer, unassigned) [FSA-217021a] | – | > 64 µg/mL | – | – | > 64 µg/mL | 2 µg/mL (≈ 4.22 µM) | >64 µg/mL | 4 µg/mL (≈ 8.45 µM) | > 64 µg/mL | 2 µg/mL (≈ 4.22 µM) | > 64 µg/mL | > 64 µg/mL | 4 µg/mL (≈ 8.45 µM) | – | – | – | – | – | – | –
CCC[C@@H]1C[C@@H](C(=O)N[C@H](CNCC(F)(F)F)[C@H]2OC(SC)[C@H](O)C(O)C2O)N(C)C1 (some centres unmarked) [FSA-214099] | 32 µg/mL (≈ 67.6 µM) | > 64 µg/mL | 64 µg/mL (≈ 135 µM) | 16 µg/mL (≈ 33.8 µM) | > 64 µg/mL | – | – | – | – | – | – | – | – | – | – | – | – | – | – | –
C#C[C@@H](NC(=O)[C@@H]1C[C@@H](CCC)CN1C)[C@H]1OC(SC)[C@H](O)C(O)C1O (some centres unmarked) [FSA-217031] | 8 µg/mL (≈ 20.7 µM) | > 64 µg/mL | 64 µg/mL (≈ 166 µM) | 4 µg/mL (≈ 10.3 µM) | 64 µg/mL (≈ 166 µM) | – | – | – | > 64 µg/mL | – | > 64 µg/mL | > 64 µg/mL | – | > 64 µg/mL | 32 µg/mL (≈ 82.8 µM) | – | – | – | – | –
CCC[C@@H]1C[C@@H](C(=O)N[C@H](CO)[C@H]2OC(SC)[C@H](O)C(O)C2O)N(C)C1 (some centres unmarked) [FSA-214043, 8-norlincomycin] | 8 µg/mL (≈ 20.4 µM) | > 64 µg/mL | 32 µg/mL (≈ 81.5 µM) | 4 µg/mL (≈ 10.2 µM) | 64 µg/mL (≈ 163 µM) | – | – | – | – | – | – | – | – | – | – | – | – | – | – | –
CCC[C@@H]1C[C@@H](C(=O)N2CCC[C@@H]2[C@H]2OC(SC)[C@H](O)C(O)C2O)N(C)C1 (some centres unmarked) [FSA-216092] | > 64 µg/mL | > 64 µg/mL | > 64 µg/mL | > 64 µg/mL | > 64 µg/mL | – | – | – | > 64 µg/mL | – | > 64 µg/mL | > 64 µg/mL | – | > 64 µg/mL | > 64 µg/mL | – | – | – | – | –
CCC[C@@H]1C[C@@H](C(=O)N[C@H](CNc2ccc(-c3cncnc3)cc2)[C@H]2OC(SC)[C@H](O)C(O)C2O)N(C)C1 (some centres unmarked) [FSA-214080] | > 64 µg/mL | > 64 µg/mL | > 64 µg/mL | > 64 µg/mL | > 64 µg/mL | – | – | – | – | – | – | – | – | – | – | – | – | – | – | –
CCC[C@@H]1C[C@@H](C(=O)N[C@H]([C@@H]2CCCC2N)[C@H]2OC(SC)[C@H](O)C(O)C2O)N(C)C1 (some centres unmarked) [FSA-217045b] | – | – | – | – | – | >64 µg/mL | >64 µg/mL | >64 µg/mL | – | 32 µg/mL (≈ 71.8 µM) | – | – | >64 µg/mL | – | – | >64 µg/mL | >64 µg/mL | >64 µg/mL | >64 µg/mL | >64 µg/mL
C=CC(C)(C)[C@@H](NC(=O)[C@@H]1C[C@@H](CCC)CN1C)[C@H]1OC(SC)[C@H](O)C(O)C1O (some centres unmarked) [FSA-217009] | 0.12 µg/mL (≈ 0.279 µM) | > 64 µg/mL | 0.25 µg/mL (≈ 0.581 µM) | 0.5 µg/mL (≈ 1.16 µM) | 64 µg/mL (≈ 149 µM) | – | – | – | 64 µg/mL (≈ 149 µM) | – | > 64 µg/mL | > 64 µg/mL | – | 32 µg/mL (≈ 74.3 µM) | 0.25 µg/mL (≈ 0.581 µM) | – | – | – | – | –
CCC[C@@H]1C[C@@H](C(=O)N[C@H](Cn2cc(-c3ccnc(N)n3)nn2)[C@H]2OC(SC)[C@H](O)C(O)C2O)N(C)C1 (some centres unmarked) [FSA-215011] | > 64 µg/mL | > 64 µg/mL | > 64 µg/mL | 2 µg/mL (≈ 3.73 µM) | > 64 µg/mL | – | – | – | – | – | – | – | – | – | – | – | – | – | – | –
CCC[C@@H]1C[C@@H](C(=O)N[C@H](CNC23CC(C2)C3)[C@H]2OC(SC)[C@H](O)C(O)C2O)N(C)C1 (some centres unmarked) [FSA-2140836] | > 64 µg/mL | > 64 µg/mL | > 64 µg/mL | > 64 µg/mL | > 64 µg/mL | – | – | – | – | – | – | – | – | – | – | – | – | – | – | –
CCC[C@@H]1C[C@@H](C(=O)N[C@H]([C@H]2C=CCC2)[C@H]2OC(SC)[C@H](O)C(O)C2O)N(C)C1 (some centres unmarked) [FSA-217003] | 0.5 µg/mL (≈ 1.17 µM) | > 64 µg/mL | 1 µg/mL (≈ 2.33 µM) | 0.5 µg/mL (≈ 1.17 µM) | 64 µg/mL (≈ 149 µM) | – | – | – | > 64 µg/mL | – | > 64 µg/mL | > 64 µg/mL | – | > 64 µg/mL | 1 µg/mL (≈ 2.33 µM) | – | – | – | – | –
CCC[C@@H]1C[C@@H](C(=O)N[C@H]([C@@H]2CCC(O)C2O)[C@H]2OC(SC)[C@H](O)C(O)C2O)N(C)C1 (single isomer, unassigned) [FSA-217039a] | – | > 64 µg/mL | – | – | > 64 µg/mL | 8 µg/mL (≈ 17.3 µM) | – | >64 µg/mL | > 64 µg/mL | 8 µg/mL (≈ 17.3 µM) | > 64 µg/mL | > 64 µg/mL | >64 µg/mL | > 64 µg/mL | – | – | – | – | – | –
CCC[C@@H]1C[C@@H](C(=O)N[C@H]([C@@H]2CCC(O)C2O)[C@H]2OC(SC)[C@H](O)C(O)C2O)N(C)C1 (single isomer, unassigned) [FSA-217039b] | – | – | – | – | – | 0.5 µg/mL (≈ 1.08 µM) | >64 µg/mL | 4 µg/mL (≈ 8.65 µM) | – | 1 µg/mL (≈ 2.16 µM) | – | – | 8 µg/mL (≈ 17.3 µM) | – | – | >64 µg/mL | >64 µg/mL | >64 µg/mL | >64 µg/mL | >64 µg/mL
CCC[C@@H]1C[C@@H](C(=O)N[C@H](CNc2ccccc2)[C@H]2OC(SC)[C@H](O)C(O)C2O)N(C)C1 (some centres unmarked) [FSA-214088] | > 64 µg/mL | > 64 µg/mL | > 64 µg/mL | > 64 µg/mL | > 64 µg/mL | – | – | – | – | – | – | – | – | – | – | – | – | – | – | –
CCC[C@@H]1C[C@@H](C(=O)N[C@H](CNC2CC2)[C@H]2OC(SC)[C@H](O)[C@H](O)C2O)N(C)C1 (some centres unmarked) [FSA-214082b] | > 64 µg/mL | > 64 µg/mL | > 64 µg/mL | > 64 µg/mL | > 64 µg/mL | – | – | – | – | – | – | – | – | – | – | – | – | – | – | –
CCC[C@@H]1C[C@@H](C(=O)N[C@H](CNCc2ccc(F)cc2)[C@H]2OC(SC)[C@H](O)C(O)C2O)N(C)C1 (some centres unmarked) [FSA-214084] | > 64 µg/mL | > 64 µg/mL | > 64 µg/mL | > 64 µg/mL | > 64 µg/mL | – | – | – | – | – | – | – | – | – | – | – | – | – | – | –
